Data from patent US11998481B2, “Methods and compositions for iontophoretic drug delivery to the eye” (University of Florida Research Foundation, Inc., priority 2018, dated 2024).

What was measured:
Assay type in all cases: in vitro ADME, rabbit
[1] = Ex vivo iontophoretic delivery of Nile Blue A dye through the cornea from a drug loaded contact lens (camera and confocal imaging)
Text: Materials: Mature cadaver rabbit eyes were purchased from Pel-Freez Biologicals (Rogers, AR). The Nile Blue A dye was purchased from Sigma-Aldrich (St. Louis, MO) with a 75% dye content. Electrode materials were either made from generic lead-free, silver bearing solder or was 3D printed with conductive PLA filament (Proto Pasta, Vancouver, WA). Cadaver rabbit eyes were fixed in Margo solution containing paraformaldehyde and glutaraldehyde purchased from Fisher Scientific (Hampton, NH). Soaking agents for lenses included phosphate buffered saline (PBS), 1 M HEPES, a HEPES buffer solution containing sodium chloride, calcium chloride, magnesium chloride, and potassium phosphate were all purchased from Fisher Scientific (Hampton, NH). Commercial contact lenses Acuvue Oasys (14 mm diameter, 8.4 mm base curve, 0.0 power) were used in the study.
Lens Preparation: Contact lenses were loaded by soaking in a Nile Blue A dye solution (1 mg/mL) in DI water for two days. To investigate the effect of buffer, lenses were soaked in either pure HEPES or HEPES buffer for 10 minutes prior to placement on the cadaver eyes. The molecular weight of HEPES is 238 allowing rapid uptake by the contact lenses. […]
In order to quantify drug delivery, diffusion efficacy was measured by simultaneous comparison of four separate eyes, each corresponding to a different condition. […]

[2] = Ex vivo iontophoretic delivery of Nile Blue to the posterior eye segment (confocal microscopy)
Text: (§1) Materials: Mature cadaver rabbit eyes were purchased from Pel-Freez Biologicals (Rogers, AR). The Nile Blue A dye (75% dye content) and Fluorescein were purchased from Sigma-Aldrich (St. Louis, MO). Electrode materials were made 3D printed with conductive PLA filament (Proto Pasta, Vancouver, WA). Cadaver rabbit eyes were fixed in Margo solution containing paraformaldehyde and glutaraldehyde purchased from Fisher Scientific (Hampton, NH). Soaking agents for lenses included phosphate buffered saline (PBS) or a HEPES solution purchased from Fisher Scientific (Hampton, NH). Commercial contact lenses Acuvue Oasys (14 mm diameter, 8.4 mm base curve, 0.0 power) were used in the study.
(§2) Lens Preparation: Contact lenses were loaded by soaking in a 1 mg/mL Nile Blue solution in PBS or in a 0.01 mg/mL fluorescein solution in HEPES overnight. Lenses were loaded overnight in an enclosed space to prevent photobleaching of any species. […] Both species have low molecular weights and therefore have rapid uptakes into the lenses.
Application of Electric Field: Loaded contact lenses were placed at the periphery of the cornea, on the sclera, and the two electrodes were placed over the lenses. Electrodes were attached to a power source that was set to the desired current (FIG. 8). A syringe pump was configured to gently apply a drop of PBS (≈30 μL) every 30 seconds on to the cornea and would flow to the lenses, providing a thin film to keep them hydrated. The application of PBS also served as an approximate mimic of the in vivo tear film. The submersion of the lens was also crucial to ensure that if any bubbling from electrochemically generated gases were to occur, it would be easily visible. The field was applied for the desired duration and then the power source and lenses were removed. Experiments were conducted with the lenses soaked in PBS for the anode component and HEPES for the cathode. The Nile Blue and fluorescein experiments were each conducted with three different combinations of time and current. […]

[3] = Ex vivo iontophoretic delivery of fluorescein to the posterior eye segment, quantified in the vitreous by fluorometer; settings: for Flux (time averaged): calculated from final concentration in the vitreous; for Concentration in Vitreous: lens loaded with 0.01 mg/mL fluorescein in HEPES; for electrophoretic velocity from the data of Table 3: order of magnitude
Text: as §1, §2
Application of Electric Field: Loaded contact lenses were placed at the periphery of the cornea, on the sclera, and the two electrodes were placed over the lenses. Electrodes were attached to a power source that was set to the desired current (FIG. 8). A syringe pump was configured to gently apply a drop of PBS (≈30 μL) every 30 seconds on to the cornea and would flow to the lenses, providing a thin film to keep them hydrated. The application of PBS also served as an approximate mimic of the in vivo tear film. The submersion of the lens was also crucial to ensure that if any bubbling from electrochemically generated gases were to occur, it would be easily visible. The field was applied for the desired duration and then the power source and lenses were removed. Experiments were conducted with the lenses soaked in PBS for the anode component and HEPES for the cathode. The Nile Blue and fluorescein experiments were each conducted with three different combinations of time and current.
Quantification of Fluorescein Delivery: Delivery of fluorescein to the posterior eye segment was conducted four times for each variation of time and current. After completion, eyes were submerged in PBS for 1 hour and then refrozen. Once the eyes had completely solidified, the vitreous was removed by cutting away the rest of the eye. All samples of same time and current were combined and thawed. After thawing was complete, the vitreous was put through a 0.22 μm filter to ensure no excessive tissue was present in the system. Relative fluorescent intensity of each sample was found using a Quantech fluorometer and the corresponding concentrations of fluorescein was found through a calibration curve.
Efficient transport of fluorescein to the vitreous: The fluorescein was loaded into lenses in a HEPES solution, which alleviated the damage done to the eye during the generation of caustic species from the electrochemical reactions. In order to quantify the delivery of fluorescein to the posterior eye segment, experiments were conducted at three different combinations or time and current and were compared to a control. The electric fields chosen were 0.25 mA (high current) and 0.125 mA (low current) for either 1 hour (short time) or 2 hours (long time). After the application of the electric field to the sclera, the vitreous was harvested and fluorescence was quantified using a fluorometer. The concentrations of fluorescein were found using a calibration curve for the relative fluorescence (Table 3). Additionally in FIGS. 11A-11B, the delivery and localization of fluorescein can be seen in the posterior eye segment. Fluorescence was produced using a UV light source and observed thorough an orange filter. The regions near the cathode component show localizations of fluorescein at the exterior and interior surfaces. The final concentration in the vitreous was also used to calculate the time averaged flux of the fluorescein and the electrophoretic mobility. […]

Compound | Nile Blue A dye present throughout the cornea (confocal) ([1]; diffusion only, no electric field, from contact lens or standing solution, after 1 hr) | Nile Blue A dye delivered to the cornea (ROI analysis) ([1]; lenses loaded in DI water, all current and time conditions (0.25 or 0.125 mA, 30 or 60 min)) | distribution of Nile Blue A dye across sclera, choroid, and retina ([2]; all applied currents and times) | damage to the posterior eye segment (confocal imaging) ([2]; hybrid lenses: PBS at anode, HEPES at cathode) | transport of Nile Blue A dye across sclera, choroid, and retina (confocal) ([2]; low current and short time duration) | Flux (time averaged) ([3]; 1 hr 0.125 mA) | Concentration in Vitreous ([3]; 1 hr 0.125 mA) [ng/mL] | Flux (time averaged) ([3]; 1 hr 0.250 mA) | Concentration in Vitreous ([3]; 1 hr 0.250 mA) [ng/mL] | Flux (time averaged) ([3]; 2 hr 0.125 mA) | Concentration in Vitreous ([3]; 2 hr 0.125 mA) [ng/mL] | electrophoretic velocity from the data of Table 3 ([3]; high current (0.25 mA) experiments) [μm/s] | electrophoretic velocity from the data of Table 3 ([3]; low current (0.125 mA) experiments) [μm/s]
CC[N+](CC)=c1ccc2nc3c(cc(N)c4ccccc43)oc-2c1 [Nile Blue A dye] | very minor amounts | significant quantities | uniform | no apparent damage | sufficient transport | – | – | – | – | – | – | – | –
O=C1OC2(c3ccc(O)cc3Oc3cc(O)ccc32)c2ccccc21 [Fluorescein] | – | – | – | – | – | 7.18 kg/m^2s [×10^7] | 33.8 | 14.93 kg/m^2s [×10^7] | 70.4 | 6.46 kg/m^2s [×10^7] | 60.9 | ~2.6 | ~1.3
